{"source": "patent US20170333391A1", "about": "“METHOD FOR DELAYING THE ONSET OF PULMONARY FIBROSIS OR TREATING PULMONARY FIBROSIS” (EVERFRONT BIOTECH INC., priority 2016, published 2017)", "key": {"[1]": {"system": "TGF-β", "experiment": "TGF-β mRNA expression in NHLF, Q-PCR (3-2)", "assay_type": "cell-based, human", "conditions": "24 hours", "experimental": "Normal Human lung fibroblasts (NHLF) were seeded into 6-well plate at a density of 10^5 cells/well, comprising a control group and five experimental groups (6 wells in total). The cells were cultured until the next day, and then the mediums were removed. Each group was respectively treated under the following conditions to conduct follow-up experiments: • (1) Control group: cells were cultured in a FGM-2 medium containing 1% serum for 24 hours; • (2) Group α: cells were cultured in a FGM-2 medium containing 1% serum and compound (1) (5 μg/ml) for 24 hours; • (3) Group β: cells were cultured in a FGM-2 medium containing 1% serum and compound (1) (10 μg/ml) for 24 hours; • (4) Group γ: cells were cultured in a F-12K medium containing 1% serum and H2O2 (0.1 mM) for 24 hours; • (5) Group δ: cells were cultured in a F-12K medium containing 1% serum, H2O2 (0.1 mM) and compound (1) (5 μg/ml) for 24 hours; and • (6) Group ε: cells were cultured in a F-12K medium containing 1% serum, H2O2 (0.1 mM) and compound (1) (10 μg/ml) for 24 hours.\nThereafter, the total RNA of cells taken from each group were extracted, and then reverse transcription was conducted on the total RNA by using a QuantiTect Reverse Transcription Kit to obtain cDNA therefrom. A Q-PCR was then conducted on the cDNA to analyze the mRNA expression levels of genes such as α-SMA and TGF-β, wherein GAPDH gene served as an internal control. The results of the control group served as the basis for calculating the relative expression levels of the other groups."}, "[2]": {"system": "Sox2 protein", "experiment": "Sox2 protein expression in transfected NHLF (pcDNA3.1 empty vector or pcDNA3.1-SOX2), western blotting (2-3)", "assay_type": "cell-based, human", "conditions": "TGF-β1 5 ng/ml 12 h", "experimental": "The pcDNA3.1 empty vector and the pcDNA3.1-SOX2 plasmid (i.e., pcDNA3.1 vector containing SOX2 gene) were respectively transfected into Normal Human lung fibroblasts (NHLF) by the Fugene HD cell transfection reagent. The cells were screened to obtain NHLFs containing the pcDNA3.1 empty vector or the pcDNA3.1-SOX2 plasmid.\nNHLFs containing the pcDNA3.1 empty vector were then seeded into 6 cm culture dishes at a density of 2×10^5 cells/dish, comprising a control group and three experimental groups (4 dishes in total). The cells were cultured until the next day, and then the mediums were removed. Each group was respectively treated under the following conditions to conduct follow-up experiments: • (1) Control group I: cells were cultured in a FGM-2 medium containing 1% serum for 36 hours; • (2) Group A: cells were cultured in a FGM-2 medium containing 1% serum and TGF-β1 (5 ng/ml) for 36 hours; • (3) Group B: cells were firstly cultured in a FGM-2 medium containing 1% serum and TGF-β1 (5 ng/ml) for 12 hours, and then compound (1) was added into the medium to provide a final concentration of 15 μg/ml; thereafter, the cells were cultured for another 24 hours; and • (4) Group C: cells were firstly cultured in a FGM-2 medium containing 1% serum and TGF-β1 (5 ng/ml) for 12 hours, and then compound (1) was added into the medium to provide a final concentration of 30 μg/ml; thereafter, the cells were cultured for another 24 hours.\nIn another aspect, NHLFs containing the pcDNA3.1-SOX2 plasmid were seeded into the 6 cm culture dishes at a density of 2×10^5 cells/dish, comprising a control group and three experimental groups (4 dishes in total). The cells were cultured until the next day, and then the mediums were removed. Each group was respectively treated under the following conditions to conduct follow-up experiments: • (1) Control group II: cells were cultured in a FGM-2 medium containing 1% serum for 36 hours; • (2) Group D: cells were cultured in a FGM-2 medium containing 1% serum and TGF-β1 (5 ng/ml) for 36 hours; • (3) Group E: cells were firstly cultured in a FGM-2 medium containing 1% serum and TGF-β1 (5 ng/ml) for 12 hours, and then the compound (1) was added into the medium to provide a final concentration of 15 μg/ml; thereafter, the cells were cultured for another 24 hours; and • (4) Group F: cells were firstly cultured in a FGM-2 medium containing 1% serum and TGF-β1 (5 ng/ml) for 12 hours, and then the compound (1) was added into the medium to provide a final concentration of 30 μg/ml; thereafter, the cells were cultured for another 24 hours.\nThereafter, the proteins in the cells of each group were extracted, and the expressions of Sox2 protein, TGF-β protein and type I collagen in the NHLF cells of each group were measured with western blotting. […]"}}}
{"smiles": "CCCC=C1OC(=O)c2ccccc21", "note": "[compound (1)]", "values": [{"measurement": "Relative expression level (fold) TGF-β", "setting": "[1]; Group α: mRNA, FGM-2 medium 1% serum + compound (1) 5 μg/ml, control group = 1", "value": 0.61, "unit": "fold"}, {"measurement": "Relative expression level (fold) TGF-β", "setting": "[1]; Group β: mRNA, FGM-2 medium 1% serum + compound (1) 10 μg/ml, control group = 1", "value": 0.12, "unit": "fold"}, {"measurement": "Relative expression level (fold) TGF-β", "setting": "[1]; Group δ: mRNA, F-12K medium 1% serum + H2O2 0.1 mM + compound (1) 5 μg/ml, control group = 1, H2O2-only group γ = 0.34", "value": 0.42, "unit": "fold"}, {"measurement": "Relative expression level (fold) TGF-β", "setting": "[1]; Group ε: mRNA, F-12K medium 1% serum + H2O2 0.1 mM + compound (1) 10 μg/ml, control group = 1, H2O2-only group γ = 0.34", "value": 0.04, "unit": "fold"}, {"measurement": "Relative expression level (fold) Sox2 protein", "setting": "[2]; Group B: NHLF with pcDNA3.1 empty vector, then compound (1) 15 μg/ml 24 h, control group I = 1, TGF-β1-only group A = 1.55", "value": 1.81, "unit": "fold"}, {"measurement": "Relative expression level (fold) Sox2 protein", "setting": "[2]; Group C: NHLF with pcDNA3.1 empty vector, then compound (1) 30 μg/ml 24 h, control group I = 1, TGF-β1-only group A = 1.55", "value": 1.04, "unit": "fold"}, {"measurement": "Relative expression level (fold) Sox2 protein", "setting": "[2]; Group E: NHLF with pcDNA3.1-SOX2 plasmid, then compound (1) 15 μg/ml 24 h, control group II = 1, TGF-β1-only group D = 0.88", "value": 1.03, "unit": "fold"}, {"measurement": "Relative expression level (fold) Sox2 protein", "setting": "[2]; Group F: NHLF with pcDNA3.1-SOX2 plasmid, then compound (1) 30 μg/ml 24 h, control group II = 1, TGF-β1-only group D = 0.88", "value": 1.02, "unit": "fold"}]}
